The target of this experiment is T1, human recombinant Aurora A (Homo sapiens, UniProt O14965).
T1 construct: purchased ThermoFisher PR5935A
T1 sequence (O14965 1-403): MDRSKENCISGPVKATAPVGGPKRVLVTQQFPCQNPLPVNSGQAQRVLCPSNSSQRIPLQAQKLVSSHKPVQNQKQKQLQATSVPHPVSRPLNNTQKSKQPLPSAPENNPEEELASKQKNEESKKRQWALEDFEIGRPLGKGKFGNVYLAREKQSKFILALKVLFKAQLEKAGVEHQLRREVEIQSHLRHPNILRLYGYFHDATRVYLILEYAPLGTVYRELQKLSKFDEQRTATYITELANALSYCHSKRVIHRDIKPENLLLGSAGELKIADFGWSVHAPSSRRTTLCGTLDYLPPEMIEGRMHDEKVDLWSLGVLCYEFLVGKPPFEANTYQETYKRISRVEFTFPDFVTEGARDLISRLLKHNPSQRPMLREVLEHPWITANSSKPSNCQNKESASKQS
The experiment can be described thus: Aurora A Kinase Biochemical Assay (ADP-Glo). Conditions: selectivity ratio; Aurora A 2.5 nM, 20 μM ATP. Here is the method: Activity of human recombinant Aurora A (ThermoFisher, cat #PR5935A) was measured by quantification of adenosine diphosphate (ADP) using the ADP-Glo Kinase Assay Kit (Promega, cat #V9102). Test compounds were solubilized in dimethyl sulfoxide (DMSO) and dispensed into 384-well white polystyrene nonbinding plates (Greiner, cat #781094) using the Echo acoustic dispenser (Labcyte Inc.) in a 11-point 3-fold titration in duplicates. 5 μL of 5.0 nM Aurora A in assay buffer (50 mM HEPES, pH 7.5, 0.01% Brij-35, 0.01% BSA, 10 mM MgCl2, 1 mM EGTA, 1 mM DTT) was added to the plates. Test compounds and Aurora A were incubated for 15 minutes at room temperature (RT). Then 5 μL of a 40 μM adenosine triphosphate (ATP) (Promega, cat #V915B) and 9.3 μM Myelin Basic Protein (MBP) (SignalChem, cat #M42-51N) substrate solution in assay buffer was added and the reaction mixture was incubated for 2 hours at RT. The final concentration of Aurora A, ATP and MBP in the reactions were 2.5 nM, 20 μM and 4.7 μM, respectively. Reactions were stopped and the remaining ATP depleted by adding 10 μL of ADP-Glo reagent (Promega, cat #V912B) and incubating for 40 minutes at RT. The simultaneous conversion of the remaining ADP to ATP and measurement of the newly synthesized ATP was achieved by addition of 20 μL Kinase Detection reagent (Promega, cat #V914B), incubation for 30 min at RT, and luminescence detection using the EnVision plate reader (PerkinElmer). Reactions lacking Aurora A were used as 100% inhibition controls. Reactions containing DMSO alone were used as 0% inhibition controls. The IC50 values reported in Table 2 were determined using four parameter non-linear regression curve fit.
A general note: ADP-Glo turns the ADP formed in a reaction into a luminescent signal.

Regarding `COc1ccc2c(c1)[C@]1(C[C@H]1c1ccc3c(Nc4nc(N(C)C)ncc4OC)n[nH]c3c1)C(=O)N2` [Example 20, (1R,2S)-2-(3-{[2-(dimethylamino)-5-methoxypyrimidin-4-yl]amino}-1H-indazol-6-yl)-5′-methoxyspiro[cyclopropane-1,3′-indol]-2′(1′H)-one], the “[Aurora A IC50 (nM)]/[PLK4 IC50 (nM)]” value came to 170.
The value for `CCOc1ccc(-c2nccs2)nc1Nc1n[nH]c2cc([C@@H]3C[C@@]34C(=O)Nc3ccc(OC)cc34)ccc12` [Example 28, (1R,2S)-2-(3-{[3-ethoxy-6-(1,3-thiazol-2-yl)pyridin-2-yl]amino}-1H-indazol-6-yl)-5′-methoxyspiro[cyclopropane-1,3′-indol]-2′(1′H)-one] was 1135; that for `COc1ccc2c(c1)[C@]1(C[C@H]1c1ccc3c(Nc4nc(-c5cnn(C)c5)cnc4OC)n[nH]c3c1)C(=O)N2` [Example 24, (1R,2S)-5′-methoxy-2-(3-{[3-methoxy-6-(1-methyl-1H-pyrazol-4-yl)pyrazin-2-yl]amino}-1H-indazol-6-yl)spiro[cyclopropane-1,3′-indol]-2′(1′H)-one] was 842.4019.
The value for `CCOc1cc2c(ccc[n+]2[O-])cc1Nc1n[nH]c2cc([C@@H]3C[C@@]34C(=O)Nc3ccc(OC)cc34)ccc12` [Example 12, 7-ethoxy-6-((6-((1R,2S)-5′-methoxy-2′-oxospiro[cyclopropane-1,3′-indolin]-2-yl)-1H-indazol-3-yl)amino)quinoline 1-oxide] was 630.
For `COc1ccc2c(c1)[C@]1(C[C@H]1c1ccc3c(Nc4cc(-c5cnn(CC(F)F)c5)cnc4OC)n[nH]c3c1)C(=O)N2` [Example 46, (1R,2S)-2-(3-((5-(1-(2,2-difluoroethyl)-1H-pyrazol-4-yl)-2-methoxypyridin-3-yl)amino)-1H-indazol-6-yl)-5′-methoxyspiro[cyclopropane-1,3′-indolin]-2′-one], the “[Aurora A IC50 (nM)]/[PLK4 IC50 (nM)]” value is given as 469.9759.
In the case of `COc1ccc2c(c1)[C@]1(C[C@H]1c1ccc3c(Nc4nc(-c5ncco5)cnc4OC)n[nH]c3c1)C(=O)N2` [Example 19, (1R,2S)-5′-methoxy-2-(3-{[3-methoxy-6-(1,3-oxazol-2-yl)pyrazin-2-yl]amino}-1H-indazol-6-yl)spiro[cyclopropane-1,3′-indol]-2′(1′H)-one] it was 360; in that of `CCOc1ncc(-c2nccs2)cc1Nc1n[nH]c2cc([C@@H]3C[C@@]34C(=O)Nc3ccc(OC)cc34)ccc12` [Example 41, (1R,2S)-2-(3-{[2-ethoxy-5-(1,3-thiazol-2-yl)pyridin-3-yl]amino}-1H-indazol-6-yl)-5′-methoxyspiro[cyclopropane-1,3′-indol]-2′(1′H)-one], 4711.9113; in that of `COc1ccc2c(c1)[C@]1(C[C@H]1c1ccc3c(Nc4cc(-c5cnn(C)c5)ccc4OC)n[nH]c3c1)C(=O)N2` [Example 11, (1R,2S)-5′-methoxy-2-{3-[2-methoxy-5-(1-methyl-1H-pyrazol-4-yl)anilino]-1H-indazol-6-yl}spiro[cyclopropane-1,3′-indol]-2′(1′H)-one], 897.6923.
In the case of `COc1ccc2c(c1)[C@]1(C[C@H]1c1ccc3c(Nc4cc(-c5cnn(CC(F)F)c5)ccc4OC)n[nH]c3c1)C(=O)N2` [Example 39, (1R,2S)-2-(3-{5-[1-(2,2-difluoroethyl)-1H-pyrazol-4-yl]-2-methoxyanilino}-1H-indazol-6-yl)-5′-methoxyspiro[cyclopropane-1,3′-indol]-2′(1′H)-one] it was 1647.6978; in that of `CCOc1cc(S(C)(=O)=O)ccc1Nc1n[nH]c2cc([C@@H]3C[C@@]34C(=O)N(C)c3ccc(OC)cc34)ccc12` [Example 23, (1R,2S)-2-{3-[2-ethoxy-4-(methanesulfonyl)anilino]-1H-indazol-6-yl}-5′-methoxy-1′-methylspiro[cyclopropane-1,3′-indol]-2′(1′H)-one], 2258.3629; in that of `CCOc1cnc(-c2nccs2)cc1Nc1n[nH]c2cc([C@@H]3C[C@@]34C(=O)Nc3ccc(OC)cc34)ccc12` [Example 34, (1R,2S)-2-(3-{[5-ethoxy-2-(1,3-thiazol-2-yl)pyridin-4-yl]amino}-1H-indazol-6-yl)-5′-methoxyspiro[cyclopropane-1,3′-indol]-2′(1′H)-one], 14827.5862.
In the case of `COc1ccc2c(c1)[C@]1(C[C@H]1c1ccc3c(Nc4cc5c(cc4OC)S(=O)(=O)CC5)n[nH]c3c1)C(=O)N2` [Example 1, 6-methoxy-5-({6-[(1R,2S)-5′-methoxy-2′-oxo-1′,2′-dihydrospiro[cyclopropane-1,3′-indol]-2-yl]-1H-indazol-3-yl}amino)-2,3-dihydro-1H-1-benzothiophene-1,1-dione] it was 2164.
Consider `COc1ccc2c(c1)[C@]1(C[C@H]1c1ccc3c(Nc4ccc(S(C)(=O)=O)cc4OC)n[nH]c3c1)C(=O)N2` [Example 2, (1R,2S)-2-{3-[4-(methanesulfonyl)-2-methoxyanilino]-1H-indazol-6-yl}-5′-methoxyspiro[cyclopropane-1,3′-indol]-2′(1′H)-one], for which the “[Aurora A IC50 (nM)]/[PLK4 IC50 (nM)]” value turned out to be 801.1462.
For `COc1ccc2c(c1)[C@]1(C[C@H]1c1ccc3c(Nc4cc(-c5cocn5)ccc4OC)n[nH]c3c1)C(=O)N2` [Example 16, (1R,2S)-5′-methoxy-2-{3-[2-methoxy-5-(1,3-oxazol-4-yl)anilino]-1H-indazol-6-yl}spiro[cyclopropane-1,3′-indol]-2′(1′H)-one], the “[Aurora A IC50 (nM)]/[PLK4 IC50 (nM)]” value came to 259.1.
With `COc1ccc2c(c1)[C@]1(C[C@H]1c1ccc3c(Nc4cc(-c5nnn(C)n5)ccc4OC)n[nH]c3c1)C(=O)N2` [Example 21, (1R,2S)-5′-methoxy-2-{3-[2-methoxy-5-(2-methyl-2H-tetrazol-5-yl)anilino]-1H-indazol-6-yl}spiro[cyclopropane-1,3′-indol]-2′(1′H)-one], the “[Aurora A IC50 (nM)]/[PLK4 IC50 (nM)]” value was 1900.
In the case of `CCOc1ncc(-c2nccs2)nc1Nc1n[nH]c2cc([C@@H]3C[C@@]34C(=O)Nc3ccc(OC)cc34)ccc12` [Example 35, (1R,2S)-2-(3-{[3-ethoxy-6-(1,3-thiazol-2-yl)pyrazin-2-yl]amino}-1H-indazol-6-yl)-5′-methoxyspiro[cyclopropane-1,3′-indol]-2′(1′H)-one], the “[Aurora A IC50 (nM)]/[PLK4 IC50 (nM)]” value amounted to 727.2189.
In the case of `CCS(=O)(=O)c1ccc(Nc2n[nH]c3cc([C@@H]4C[C@@]45C(=O)Nc4ccc(OC)cc45)ccc23)c(OC)c1` [Example 5, (1R,2S)-2-{3-[4-(ethanesulfonyl)-2-methoxyanilino]-1H-indazol-6-yl}-5′-methoxyspiro[cyclopropane-1,3′-indol]-2′(1′H)-one] it was 567.6936.
The value for `COc1ccc2c(c1)[C@]1(C[C@H]1c1ccc3c(Nc4ccc(C(C)=O)cc4OC)n[nH]c3c1)C(=O)N2` [Example 3, (1R,2S)-2-[3-(4-acetyl-2-methoxyanilino)-1H-indazol-6-yl]-5′-methoxyspiro[cyclopropane-1,3′-indol]-2′(1′H)-one] was 1671.3768.
In the case of `COc1ccc2c(c1)[C@]1(C[C@H]1c1ccc3c(Nc4nc(-c5ncco5)ccc4OC)n[nH]c3c1)C(=O)N2` [Example 4, (1R,2S)-5′-methoxy-2-(3-{[3-methoxy-6-(1,3-oxazol-2-yl)pyridin-2-yl]amino}-1H-indazol-6-yl)spiro[cyclopropane-1,3′-indol]-2′(1′H)-one] it was 538.2697.
For the compound `COc1ccc2c(c1)[C@]1(C[C@H]1c1ccc3c(Nc4ccc(-c5nnn(C)n5)cc4OC)n[nH]c3c1)C(=O)N2` [Example 17, (1R,2S)-5′-methoxy-2-{3-[2-methoxy-4-(2-methyl-2H-tetrazol-5-yl)anilino]-1H-indazol-6-yl}spiro[cyclopropane-1,3′-indol]-2′(1′H)-one], the “[Aurora A IC50 (nM)]/[PLK4 IC50 (nM)]” value is reported as 1000.

These data come from patent US20260108527A1, “POLO LIKE KINASE 4 INHIBITORS” (ORIC Pharmaceuticals, Inc., priority 2022, published 2026).
